US20090306200A1, “Prophylactic or Therapeutic Agent for Nocturnal Conduct Disorder Associated With Dementia” (Takeda Pharmaceutical Company Limited, priority 2005, published 2009)
Marks after values point to notes of the source that are not given here.

Test system: SAMP8/Ta Slc mice
Assay: Measurement of rotational motor activity in mouse (turning wheel; motor activity in light period)
Type: in vivo
Conditions: for Motor Activity in light period, % of Pre: Pre value = 100%; for Motor Activity in light period, %: n = 9
Protocol: Animals: SAMP8/Ta Slc mice (16 weeks old), and SAMR1/Ta Slc mice (16 weeks old) as control mouse were used. After breeding in a rearing room, they were used after the age of 6-month-old to 8-month-old. A sole isolation breeding was conducted during the breeding. AB system of Neuroscience Co. was used for measurement. The mice were put in separate cages, and the turning wheel's rotation number for every minute by mouse was measured, and the data was analyzed as a motor activity for every hour. A turning wheel was equipped in the cage for measurement. The number in which the mouse rotated the turning wheel was automatically counted every minute with AB system (Neuroscience Co.), and recorded with time course as an amount of movement (motor activity). Using the total value of turning wheel's rotation number in habituation stage, each group was evenly grouped. Compound A was dissolved in water for injection, and water for injection was used as a vehicle. The solution and vehicle were administered as drinking water, respectively. The drinking water was replaced with new one every week. Pre: Habituation period (1 week) First week: Vehicle/Compound A 0.1-0.2 mg/kg/day Second week: Vehicle/Compound A 0.1-0.2 mg/kg/day Third week: Vehicle/Compound A 1-2 mg/kg/day Fourth week: Vehicle/Compound A 1-2 mg/kg/day Fifth week: Vehicle/Compound A 1-2 mg/kg/day The number of rotational movement which was automatically counted every minute by AB system (Neuroscience Co.) was tallied for every hour. Calculation was carried out according to the following sequences. (i) By calculating according to the following mathematical formula: (rotational motor activity in light period of a day)/(rotational motor activity in light period of a day+rotational motor activity in dark period of a day)×100, motor activity % in light period was determined. (ii) The mean value of motor activity % in light period was calculated for every week, and was made a representative value for every week. (iii) In addition, in case that the value of Pre was made 100%, rate of change of motor activity % in light period after administration was shown as % of Pre value. Statistical analysis was performed with t-test or Paired t-test for vehicle administration group and compound A administration group of SAMP8.

[1] = 1st week, Compound A 0.1-0.2 mg/kg/day in drinking water
[2] = 2nd week, Compound A 0.1-0.2 mg/kg/day in drinking water
[3] = 3rd week, Compound A 1-2 mg/kg/day in drinking water
[4] = 4th week, Compound A 1-2 mg/kg/day in drinking water
[5] = 5th week, Compound A 1-2 mg/kg/day in drinking water

Structure (SMILES): CCC(=O)NCC[C@@H]1CCc2ccc3c(c21)CCO3 [Compound A, (S)—N-[2-(1,6,7,8-tetrahydro-2H-indeno[5,4-b]furan-8-yl)ethyl]propionamide]
- abnormal behavior in light period of SAMP8 (0.1-0.2 then 1-2 mg/kg/day in drinking water): inhibit dose-dependently
- Motor Activity in light period, % of Pre [1]: 97.67 % of Pre
- Motor Activity in light period, % [1]: 30.95%
- Motor Activity in light period, % of Pre [2]: 79.60 % of Pre
- Motor Activity in light period, % [2]: 24.58%
- Motor Activity in light period, % of Pre [3]: 70.25** % of Pre
- Motor Activity in light period, % [3]: 22.82* %
- Motor Activity in light period, % of Pre [4]: 74.77* % of Pre
- Motor Activity in light period, % [4]: 23.75* %
- Motor Activity in light period, % of Pre [5]: 71.64* % of Pre
- Motor Activity in light period, % [5]: 21.18** %
- change of the motor activity % in light period and the % of Pre value compared to the vehicle administered group (first and second week, 0.1-0.2 mg/kg/day in drinking water): there was not observed a change
- motor activity % in light period and the % of Pre value compared to the vehicle-administered group (third to fifth week, 1-2 mg/kg/day in drinking water): decreased
